pIC50: −log10 of the molar value. “Also recorded” adds a separate entry of the source.
How the values were obtained:
CYP3A4 = CYP3A4 (Homo sapiens, UniProt P08684); test: CYP inhibition assay CYP3A4 (midazolam 1'-hydroxylase); settings: 10 μM, human liver microsomes, n = 3
Method: (§1) Phenacetin O-demethylase, diclofenac 4-hydroxylase, S-mephenytoin 4-hydroxylase, dextromethorphan O-demethylase, and midazolam 1’-hydroxylase activities were determined as probe activities for CYP1A2, CYP2C9, CYP2C19, CYP2D6, and CYP3A4, respectively, using cocktail incubation. […] The cocktail incubation mixtures consisted of 0.25 mg/mL human liver microsomes, 0.1 M phosphate buffer (pH 7.4), an NADPH regeneration system, and inhibitors (CRF1R antagonist compounds, 10 µM) in a total volume of 100 μL. The final volume of the organic solvents in the incubation mixture was 1% (v/v). […] All incubations were performed in triplicate, and the mean values were used for analysis. The samples were then centrifuged at 15,000 rpm for 5 min at 4 °C. […] The CYP-mediated activities in the presence of inhibitors were expressed as percentages of the corresponding control values.

CYP2C19 = target: T1, CYP2C19 (Homo sapiens, UniProt P33261); test: CYP inhibition assay CYP2C19 (S-mephenytoin 4-hydroxylase); format: in vitro ADME; settings: 10 μM, human liver microsomes, n = 3
T1 construct: 0.25 mg/mL human liver microsomes; from tissue; host or cells: human liver microsomes
Method: as §1

CORT serum levels = test: Serum CORT level after TST (LC-MS); format: in vivo, mice; settings: 30 mg/kg orally for 3 days, immediately after TST
Method: The mice were anesthetized via intraperitoneal injections of 2,2,2-tribromoethanol (300 mg/kg, Sigma-Aldrich) immediately after the TST and before blood from the heart was sampled. Blood samples were collected in plastic tubes and incubated at room temperature for at least 2 h. The sera were extracted after centrifugation at 13,000×g for 10 min at 4 °C. CORT levels were determined via LC‒MS analysis. Serum (10 µL) was mixed with 20 μL of an internal standard solution (d4-cortisol) to prepare the samples. Subsequently, 100 μL of acetonitrile was added, and the mixture was centrifuged at 16,000×g for 10 min for protein precipitation. The supernatants (60 μL) were transferred into an autosampler vial, and 30 μL of water was added for efficient separation via high-performance liquid chromatography (HPLC). LC‒MS was performed with a triple quadrupole mass spectrometer coupled with HPLC using a C18 reversed-phase column. CORT levels were determined using a calibration curve constructed using CORT-spiked mouse serum. Serum samples (20 μL) were analyzed using a commercially available ELISA kit for ACTH (ab263880, Abcam) to measure ACTH serum levels.

C57BL/6J mice = test: Tail suspension test (TST); format: in vivo; settings: 30 mg/kg orally for 3 days, test 2 h after third dose, last 4 min of 6 min
Method: C57BL/6J mice (male, 9–10 weeks old) were used for the behavioral tests. All mice were maintained under a 12:12-h light–dark cycle (lights on at 7:00 A.M.) with access to food and water ad libitum. Animal care and handling were performed according to guidelines by the Institutional Animal Care and Use Committee of Yonsei University (Seoul, Korea). Antalarmin, BMK-C203, and BMK-C205 were dissolved in peceol: TPGS: PEG400 (vehicle) (70%:20%:10%, respectively) and administered orally at a dose of 30 mg/kg for 3 days at 24-h intervals. All behavioral tests were conducted 2 h after the third drug was administered during light periods of the circadian cycle. TSTs were performed to verify the effect of CRF1R antagonists on depressive-like behavior. Each mouse was suspended by its tail on a bar 30 cm above the ground for 6 min using adhesive tape. Their movements were recorded by a camera and analyzed using the same parameters via EthoVision XT 8.5 software (Noldus Technologies). Immobility times during the last 4 min of the task were measured. Each mouse was placed in an open field (40 cm × 40 cm × 40 cm chamber) for 1 h to conduct an open field test (OFT) and test locomotion. Their locomotion was recorded and analyzed using EthoVision XT 8.5.

CYP2D6 = CYP2D6 (Homo sapiens, UniProt P10635); test: CYP inhibition assay CYP2D6 (dextromethorphan O-demethylase); settings: 10 μM, human liver microsomes, n = 3
Method: as §1

[1] = Microsomal stability assay, human liver microsomes; format: in vitro ADME; settings: for Liver microsomal stability, Human (percentage remaining after 30 min): 1 μM, n = 3; for metabolic stability improved by: human and rat liver microsomes, 30 min
Method: LC‒MS/MS was performed on a TSQ Vantage (Thermo, USA) coupled with a Nexera XR LC system (Shimadzu, Japan)[32]. The separation was performed on a Kinetex C18 column (2.1 × 100 mm, 2.6 µm, Phenomenex, USA) using a mobile phase of 0.1% formic acid and acetonitrile containing 0.1% formic acid. A gradient program was used for elution at a flow rate of 0.3 mL/min. The data were acquired using multiple-reaction monitoring (MRM) in positive mode.

[2] = Microsomal stability assay, rat liver microsomes; format: in vitro ADME; settings: 1 μM, n = 3
Method: The incubation mixtures consisted of 0.5 mg/mL human (Corning, #452117) and rat liver microsomes (Corning, #452701), 0.1 M phosphate buffer (pH 7.4), NADPH regeneration system, and substrates (CRF1R antagonist compounds, 1 µM) in a total volume of 100 μL. […] LC‒MS/MS was performed on a TSQ Vantage (Thermo, USA) coupled with a Nexera XR LC system (Shimadzu, Japan)[32]. The separation was performed on a Kinetex C18 column (2.1 × 100 mm, 2.6 µm, Phenomenex, USA) using a mobile phase of 0.1% formic acid and acetonitrile containing 0.1% formic acid. A gradient program was used for elution at a flow rate of 0.3 mL/min. The data were acquired using multiple-reaction monitoring (MRM) in positive mode. Detection of the ions was performed by monitoring the m/z transition of 494.1 → 336.1 for BMK-I-152, 598.1 → 233.2 for BMK-C203, and 488.1 → 434.1 for BMK-C205.

CRF1R = target: T2, CRF1R (Homo sapiens, UniProt P34998); test: Calcium mobilization assay (hCRF1R Ca2+ antagonism); format: cell-based; settings: for pIC50: HEK-Gα15 cells transfected with CRF1R, urocortin 2 nM, n = 3
T2 construct: HEK-Gα15 cells (Eurofins Scientific) transfected with CRF1R; host or cells: HEK-Gα15 cells
T2 sequence (P34998 24-415): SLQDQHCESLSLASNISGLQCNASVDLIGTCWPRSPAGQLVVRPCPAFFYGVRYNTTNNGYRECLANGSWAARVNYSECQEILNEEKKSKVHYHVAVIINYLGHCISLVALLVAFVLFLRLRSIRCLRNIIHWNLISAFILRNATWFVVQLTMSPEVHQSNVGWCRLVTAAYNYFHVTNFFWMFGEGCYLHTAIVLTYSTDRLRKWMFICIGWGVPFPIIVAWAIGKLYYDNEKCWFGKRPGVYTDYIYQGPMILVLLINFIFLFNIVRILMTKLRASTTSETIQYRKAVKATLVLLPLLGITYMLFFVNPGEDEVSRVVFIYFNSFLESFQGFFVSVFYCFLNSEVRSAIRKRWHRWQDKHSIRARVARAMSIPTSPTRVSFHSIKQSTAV
Method: HEK-Gα15 cells (Eurofins Scientific) transfected with CRF1R were plated in 96-well plates at a density of 50,000 cells/100 μL per well and incubated overnight. The next day, the cells were incubated with a Calcium 6 reagent (Molecular Devices) containing 0.5 mM probenecid (Sigma) at 37 °C for 1 h before adding compounds or dimethyl sulfoxide DMSO (positive and negative control; final concentration 0.1%). After incubation at 37 °C for 1 h, 50 μL urocortin (final concentration 2 nM) (Tocris) was dispensed into the well with FLIPR-tetra (Molecular Devices). […] Intracellular calcium changes were recorded at excitation and emission wavelengths of 470–495 and 515–575 nm, respectively. Relative fluorescence units (RFU) were calculated as the fluorescence signal maximum minus the signal minimum for 30 s after addition. The graphs and IC50 concentrations were calculated using GraphPad Prism 6 software.

Sequence of CYP2D6 (P10635 whole entry): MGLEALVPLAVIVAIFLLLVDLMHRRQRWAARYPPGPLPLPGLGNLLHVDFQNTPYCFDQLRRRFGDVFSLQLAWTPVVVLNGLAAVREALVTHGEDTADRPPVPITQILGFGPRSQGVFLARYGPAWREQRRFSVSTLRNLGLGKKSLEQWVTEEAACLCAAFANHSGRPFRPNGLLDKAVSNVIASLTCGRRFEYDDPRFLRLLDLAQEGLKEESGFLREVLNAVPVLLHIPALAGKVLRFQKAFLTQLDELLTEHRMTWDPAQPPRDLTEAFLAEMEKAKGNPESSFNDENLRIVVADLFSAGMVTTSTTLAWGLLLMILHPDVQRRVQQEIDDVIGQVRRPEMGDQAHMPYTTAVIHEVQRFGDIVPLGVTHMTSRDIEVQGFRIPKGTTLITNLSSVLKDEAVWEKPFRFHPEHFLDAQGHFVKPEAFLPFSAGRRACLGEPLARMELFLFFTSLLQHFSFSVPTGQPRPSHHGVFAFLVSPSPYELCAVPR
T1 sequence (P33261 whole entry): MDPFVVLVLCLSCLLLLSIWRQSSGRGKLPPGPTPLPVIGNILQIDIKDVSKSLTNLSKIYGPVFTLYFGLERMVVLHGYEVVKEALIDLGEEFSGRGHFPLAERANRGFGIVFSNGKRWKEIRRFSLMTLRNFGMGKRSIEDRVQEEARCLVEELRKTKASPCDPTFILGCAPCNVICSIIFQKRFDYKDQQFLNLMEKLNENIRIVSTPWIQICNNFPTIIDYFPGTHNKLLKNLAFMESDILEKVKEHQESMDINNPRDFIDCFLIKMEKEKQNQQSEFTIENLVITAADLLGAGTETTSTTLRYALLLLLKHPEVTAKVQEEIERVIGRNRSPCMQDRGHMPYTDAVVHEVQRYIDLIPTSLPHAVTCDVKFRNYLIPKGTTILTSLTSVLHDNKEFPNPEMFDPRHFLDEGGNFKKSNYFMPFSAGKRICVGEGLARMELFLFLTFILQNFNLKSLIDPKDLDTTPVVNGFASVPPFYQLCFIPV
Sequence of CYP3A4 (P08684 whole entry): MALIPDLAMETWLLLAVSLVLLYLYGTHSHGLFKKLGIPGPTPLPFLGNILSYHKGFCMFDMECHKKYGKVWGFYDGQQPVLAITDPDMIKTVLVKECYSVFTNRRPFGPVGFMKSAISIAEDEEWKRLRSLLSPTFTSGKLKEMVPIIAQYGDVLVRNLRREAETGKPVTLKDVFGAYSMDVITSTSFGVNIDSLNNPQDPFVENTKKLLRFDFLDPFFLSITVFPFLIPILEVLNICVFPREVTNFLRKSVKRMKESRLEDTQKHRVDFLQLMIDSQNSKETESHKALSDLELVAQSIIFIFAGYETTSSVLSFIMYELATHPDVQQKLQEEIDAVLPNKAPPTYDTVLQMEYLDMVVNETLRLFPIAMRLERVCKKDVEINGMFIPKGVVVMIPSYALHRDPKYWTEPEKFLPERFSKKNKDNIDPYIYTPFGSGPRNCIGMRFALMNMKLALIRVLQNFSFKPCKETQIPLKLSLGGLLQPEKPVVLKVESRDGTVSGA

| Liver microsomal stability, Human (percentage remaining after 30 min) [1] [%] | metabolic stability improved by [1] | Liver microsomal stability, Rat (percentage remaining after 30 min) [2] [%] | pIC50 (CRF1R) | IC50 relative to BMK-C203 (CRF1R; hCRF1R Ca2+ antagonism assay) | SMILES | CYP3A4, percentage of control activity (CYP3A4) | CYP2C19, percentage of control activity (CYP2C19) | serum CORT level versus vehicle (CORT serum levels) | TST immobility time versus vehicle (C57BL/6J mice) | CYP2D6, percentage of control activity (CYP2D6) |
| --- | --- | --- | --- | --- | --- | --- | --- | --- | --- | --- |
| 88.3 ± 16.71 | more than 90% | 97.1 ± 8.81 | 6.55 |  | COc1cc(Br)cc(OC)c1-c1c(C)nn2c(N(CCCC(F)(F)F)CCCC(F)(F)F)nc(C)nc12 [BMK-C203] | 90.5 ± 2.9 percentage of control activity | 83.2 ± 0.5 percentage of control activity | did not significantly affect | did not significantly affect | > 100 ± 4.0 percentage of control activity |
| 88.0 ± 4.50 | more than 90% | 89.4 ± 2.07 | 7.13 | fourfold lower | CCCCN(CC1CC1)c1nc(C)nc2c(-c3c(OC)cc(Br)cc3OC)c(C)nn12 [BMK-C205] | > 100 ± 6.2 percentage of control activity | 89.7 ± 3.8 percentage of control activity | decreased | significantly decreased; also recorded: more mobile than the vehicle group | > 100 ± 3.8 percentage of control activity |

Source: article PMC10545732, “Structure-based drug discovery of a corticotropin-releasing hormone receptor 1 antagonist using an X-ray free-electron laser” (Experimental & Molecular Medicine, 2023)
